Literature values in paper PMC6309200 (Journal of Controlled Release, 2018).
Where a SMILES comes first, the peptide text is derived from it.

System: PA-specific CD8+ T cells
Settings: shown previously; ref [15]

## CC(=O)N[C@@H](CCC(N)=O)C(=O)N[C@@H](CCC(N)=O)C(=O)N[C@@H](CCCCN)C(=O)N[C@@H](Cc1ccccc1)C(=O)N[C@@H](CCC(N)=O)C(=O)N[C@@H](Cc1ccccc1)C(=O)N[C@@H](CCC(N)=O)C(=O)N[C@@H](Cc1ccccc1)C(=O)N[C@@H](CCC(=O)O)C(=O)N[C@@H](CCC(N)=O)C(=O)N[C@@H](CCC(N)=O)C(N)=O [Q11] (Ac-QQKFQFQFEQQ-NH2)
  Immunogenicity without attached competent epitopes: non-immunogenic
